Measurements from ChEMBL document CHEMBL5579867, “Ligand-Based Pharmacophoric Design and Anti-inflammatory Evaluation of Triazole Linked Semisynthetic Labdane Conjugates” (ACS Med Chem Lett, 2024).
Active and inactive are the calls of the source. The rule behind the calls is not given here.

Tests used:
RAW264.7 [1] = test: Cytotoxicity against mouse RAW264.7 cells assessed as reduction in cell viability at 1 to 20 uM incubated for 24 hrs by MTT assay; assay type: toxicity, cell-based; conditions: raw264.7, 24 h, dose 1-20 µM
RAW264.7 [2] = test: Antiinflammatory activity in LPS-induced mouse RAW264.7 cells assessed as inhibition of NO production at 1 to 20 uM pretreated for 1 hr followed by LPS stimulation and measured after 23 hrs by Griess method; assay type: functional, cell-based; conditions: dose 1-20 µM, time 24.0 hrs
RAW264.7 [3] = test: Antiinflammatory activity in LPS-induced mouse RAW264.7 cells assessed as inhibition of TNF-alpha production at 20 uM pretreated for 1 hr followed by LPS stimulation and measured after 24 hrs by ELISA; assay type: functional, cell-based; conditions: time 25.0 hrs
RAW264.7 [4] = test: Antiinflammatory activity in LPS-induced mouse RAW264.7 cells assessed as inhibition of IL-6 production at 20 uM pretreated for 1 hr followed by LPS stimulation and measured after 24 hrs by ELISA; assay type: functional, cell-based; conditions: time 25.0 hrs
RAW264.7 [5] = test: Antiinflammatory activity in LPS-induced mouse RAW264.7 cells assessed as inhibition of NO production pretreated for 1 hr followed by LPS stimulation and measured after 23 hrs by Griess method; assay type: functional, cell-based
RAW264.7 [6] = test: Inhibition of LPS-induced NF-kappaB activation in mouse RAW264.7 cells assessed as inhibition of p65 phosphorylation at 20 uM pretreated for 1 hr followed by LPS stimulation and measured after 24 hrs by Western blot analysis; assay type: cell-based; conditions: time 25.0 hrs

Row | IC50 (RAW264.7 [5]) | SMILES | Activity (RAW264.7 [1]) | Activity (RAW264.7 [2]) | Activity (RAW264.7 [3]) | Activity (RAW264.7 [4]) | inhibition (RAW264.7 [6])
1 |  | C=C1CC[C@H]2C(C)(C)CCC[C@]2(C)[C@H]1C/C=C(/C=O)CC(=O)OCc1cn(CCCCN2C(=O)C(=O)c3ccccc32)nn1 | Non-Toxic | inactive | Active | Active | 
2 |  | C=C1CC[C@H]2C(C)(C)CCC[C@]2(C)[C@H]1C/C=C(/C=O)CC(=O)OCc1cn(CCCCN2C(=O)C(=O)c3cc(C)ccc32)nn1 | Non-Toxic | Active | Active | Active | 
3 |  | C=C1CC[C@H]2C(C)(C)CCC[C@]2(C)[C@H]1C/C=C(/C=O)CC(=O)OCc1cn(CCN2C(=O)C(=O)c3cc(OC(F)(F)F)ccc32)nn1 | Non-Toxic | Active | Active | Active | 
4 |  | C=C1CC[C@H]2C(C)(C)CCC[C@]2(C)[C@H]1C/C=C(/C=O)CC(=O)OCc1cn(CCCN2C(=O)C(=O)c3ccccc32)nn1 | Non-Toxic | inactive | Active | Active | 
5 |  | C=C1CC[C@H]2C(C)(C)CCC[C@]2(C)[C@H]1C/C=C(/C=O)CC(=O)OCc1cn(CCCCN2C(=O)C(=O)c3cc(OC)ccc32)nn1 | Non-Toxic |  | Active | Active | 
6 |  | C=C1CC[C@H]2C(C)(C)CCC[C@]2(C)[C@H]1C/C=C(\CC(=O)OCc1cn(CCN2C(=O)C(=O)c3cc(Br)ccc32)nn1)C(=O)OCc1cn(CCN2C(=O)C(=O)c3cc(Br)ccc32)nn1 | Non-Toxic |  | Active | Active | 
7 |  | C=C1CC[C@H]2C(C)(C)CCC[C@]2(C)[C@H]1C/C=C(/C=O)CC(=O)OCc1cn(CCCN2C(=O)C(=O)c3cc(I)ccc32)nn1 | Non-Toxic |  | Active | Active | 
8 |  | C=C1CC[C@H]2C(C)(C)CCC[C@]2(C)[C@H]1C/C=C(/C=O)CC(=O)OCc1cn(CCCN2C(=O)C(=O)c3cc(C)ccc32)nn1 | Non-Toxic |  | Active | Active | 
9 |  | C=C1CC[C@H]2C(C)(C)CCC[C@]2(C)[C@H]1C/C=C(\CC(=O)OCc1cn(CCCN2C(=O)C(=O)c3cc(OC)ccc32)nn1)C(=O)OCc1cn(CCCN2C(=O)C(=O)c3cc(OC)ccc32)nn1 | Non-Toxic |  | Active | Active | 
10 | 7.31 µM | COc1ccc2c(c1)c(CC(=O)O)c(C)n2C(=O)c1ccc(Cl)cc1 [INDOMETHACIN] |  |  |  |  | Active
11 |  | C=C1CC[C@H]2C(C)(C)CCC[C@]2(C)[C@H]1C/C=C(/C=O)CC(=O)OCc1cn(CCCN2C(=O)C(=O)c3cc(Cl)ccc32)nn1 | Non-Toxic |  | Active | Active | 
12 |  | C=C1CC[C@H]2C(C)(C)CCC[C@]2(C)[C@H]1C/C=C(/C=O)CC=O | Non-Toxic |  | Active | Active | 
13 |  | C=C1CC[C@H]2C(C)(C)CCC[C@]2(C)[C@H]1C/C=C(\CC(=O)OCc1cn(CCN2C(=O)C(=O)c3cc(F)ccc32)nn1)C(=O)OCc1cn(CCN2C(=O)C(=O)c3cc(F)ccc32)nn1 | Non-Toxic |  | Active | Active | 
14 |  | C=C1CC[C@H]2C(C)(C)CCC[C@]2(C)[C@H]1C/C=C(\CC(=O)OCc1cn(CCN2C(=O)C(=O)c3ccccc32)nn1)C(=O)OCc1cn(CCN2C(=O)C(=O)c3ccccc32)nn1 | Non-Toxic | Active | Active | Active | 
15 |  | C=C1CC[C@H]2C(C)(C)CCC[C@]2(C)[C@H]1C/C=C(\CC(=O)OCc1cn(CCN2C(=O)C(=O)c3cc(I)ccc32)nn1)C(=O)OCc1cn(CCN2C(=O)C(=O)c3cc(I)ccc32)nn1 | Non-Toxic |  | Active | Active | 
16 |  | C=C1CC[C@H]2C(C)(C)CCC[C@]2(C)[C@H]1C/C=C(/C=O)CC(=O)OCc1cn(CCN2C(=O)C(=O)c3cc(I)ccc32)nn1 | Non-Toxic | inactive | Active | Active | 
17 |  | C=C1CC[C@H]2C(C)(C)CCC[C@]2(C)[C@H]1C/C=C(/C=O)CC(=O)OCc1cn(CCCCN2C(=O)C(=O)c3cc(Cl)ccc32)nn1 | Non-Toxic |  | Active | Active | 
18 |  | C=C1CC[C@H]2C(C)(C)CCC[C@]2(C)[C@H]1C/C=C(/C=O)CC(=O)OCc1cn(CCN2C(=O)C(=O)c3cc(Cl)ccc32)nn1 | Non-Toxic | inactive | Active | Active | 

Row | IC50 (RAW264.7 [5]) | SMILES | Activity (RAW264.7 [1]) | Activity (RAW264.7 [2]) | Activity (RAW264.7 [3]) | Activity (RAW264.7 [4]) | inhibition (RAW264.7 [6])
19 |  | C=C1CC[C@H]2C(C)(C)CCC[C@]2(C)[C@H]1C/C=C(\CC(=O)OCc1cn(CCN2C(=O)C(=O)c3cc(Cl)ccc32)nn1)C(=O)OCc1cn(CCN2C(=O)C(=O)c3cc(Cl)ccc32)nn1 | Non-Toxic |  | Active | Active | 
20 |  | C=C1CC[C@H]2C(C)(C)CCC[C@]2(C)[C@H]1C/C=C(/C=O)CC(=O)OCc1cn(CCCCN2C(=O)C(=O)c3cc(I)ccc32)nn1 | Non-Toxic |  | Active | Active | 
21 |  | C=C1CC[C@H]2C(C)(C)CCC[C@]2(C)[C@H]1C/C=C(/C=O)CC(=O)OCc1cn(CCCN2C(=O)C(=O)c3cc(OC)ccc32)nn1 | Non-Toxic |  | Active | Active | 
22 |  | C=C1CC[C@H]2C(C)(C)CCC[C@]2(C)[C@H]1C/C=C(/C=O)CC(=O)OCc1cn(CCN2C(=O)C(=O)c3cc(Br)ccc32)nn1 | Non-Toxic | inactive | Active | Active | 
23 |  | C=C1CC[C@H]2C(C)(C)CCC[C@]2(C)[C@H]1C/C=C(\CC(=O)OCc1cn(CCN2C(=O)C(=O)c3cc(OC)ccc32)nn1)C(=O)OCc1cn(CCN2C(=O)C(=O)c3cc(OC)ccc32)nn1 | Non-Toxic |  | Active | Active | 
24 |  | C=C1CC[C@H]2C(C)(C)CCC[C@]2(C)[C@H]1C/C=C(/C=O)CC(=O)OCc1cn(CCN2C(=O)C(=O)c3cc(C)ccc32)nn1 | Non-Toxic |  | Active | Active | 
25 |  | C=C1CC[C@H]2C(C)(C)CCC[C@]2(C)[C@H]1C/C=C(/C=O)CC(=O)OCc1cn(CCCCN2C(=O)C(=O)c3cc(Br)ccc32)nn1 | Non-Toxic |  | Active | Active | 
26 |  | C=C1CC[C@H]2C(C)(C)CCC[C@]2(C)[C@H]1C/C=C(/C=O)CC(=O)OCc1cn(CCN2C(=O)C(=O)c3cc(OC)ccc32)nn1 | Non-Toxic |  | Active | Active | 
27 |  | C=C1CC[C@H]2C(C)(C)CCC[C@]2(C)[C@H]1C/C=C(\CC(=O)O)C(=O)O | Non-Toxic |  | Active | Active | 
28 |  | C=C1CC[C@H]2C(C)(C)CCC[C@]2(C)[C@H]1C/C=C(/C=O)CC(=O)OCc1cn(CCCN2C(=O)C(=O)c3cc(OC(F)(F)F)ccc32)nn1 | Non-Toxic |  | Active | Active | 
29 |  | C=C1CC[C@H]2C(C)(C)CCC[C@]2(C)[C@H]1C/C=C(/C=O)CC(=O)OCc1cn(CCCCN2C(=O)C(=O)c3cc(F)ccc32)nn1 | Non-Toxic |  | Active | Active | 
30 |  | C=C1CC[C@H]2C(C)(C)CCC[C@]2(C)[C@H]1C/C=C(/C=O)CC(=O)OCc1cn(CCCCN2C(=O)C(=O)c3cc(OC(F)(F)F)ccc32)nn1 | Non-Toxic |  | Active | Active | 
31 |  | C=C1CC[C@H]2C(C)(C)CCC[C@]2(C)[C@H]1C/C=C(\CC(=O)OCc1cn(CCN2C(=O)C(=O)c3cc(C)ccc32)nn1)C(=O)OCc1cn(CCN2C(=O)C(=O)c3cc(C)ccc32)nn1 | Non-Toxic |  | Active | Active | 
32 |  | C=C1CC[C@H]2C(C)(C)CCC[C@]2(C)[C@H]1C/C=C(/C=O)CC(=O)OCc1cn(CCCN2C(=O)C(=O)c3cc(F)ccc32)nn1 | Non-Toxic | Active | Active | Active | 
33 |  | C=C1CC[C@H]2C(C)(C)CCC[C@]2(C)[C@H]1C/C=C(\CC(=O)OCc1cn(CCCN2C(=O)C(=O)c3cc(Cl)ccc32)nn1)C(=O)OCc1cn(CCCN2C(=O)C(=O)c3cc(Cl)ccc32)nn1 | Non-Toxic |  | Active | Active | 
34 |  | C=C1CC[C@H]2C(C)(C)CCC[C@]2(C)[C@H]1C/C=C(/C=O)CC(=O)OCc1cn(CCN2C(=O)C(=O)c3cc(F)ccc32)nn1 | Non-Toxic | inactive | Active | Active | 
35 |  | C=C1CC[C@H]2C(C)(C)CCC[C@]2(C)[C@H]1C/C=C(/C=O)CC(=O)OCc1cn(CCCN2C(=O)C(=O)c3cc(Br)ccc32)nn1 | Non-Toxic |  | Active | Active | 
